According to patent US12383512B2, “Cannabidiol-type cannabinoid compound” (Jazz Pharmaceuticals Research UK LImited, priority 2019, dated 2025):
Read-outs that look alike come from different tables or passages of the source.

Experiments:
[1] = system: tonic hind limb extensor seizure following corneally delivered electroshock in mice; experiment: Supramaximal electroshock seizure (MES) test in the mouse; assay type: in vivo
Procedure: The MES test is a very stringent model in which mice receive a predetermined high-level electrical stimulus of sufficient intensity to reliably produce tonic hindlimb extensor seizures in 100% of control animals. As such the MES test is a rigorous evaluation of anticonvulsant activity (Swinyard, 1985).
Animals were dosed i.p. according to treatment group. […]
In addition, a dose of 100 mg/kg CBD was given at 10 ml/kg i.p. at 120 minutes pre-treatment time to assess the effect of the drug over a longer time course.
The positive control valproate was used at 250 mg/kg (10 ml/kg i.p. 30 min pre-treatment time).
Induction of seizure is measured as an all-or-nothing effect scored as either present (+) or absent (0) for each animal.
Data was collected by an observer unaware of the treatment for each animal and was expressed as the number of +'s or 0's for each treatment group.
The percentage inhibition of relevant vehicle treated group (the protection relative to vehicle treated controls) was then generated.
Significant differences between individual treatment groups and vehicle-treated groups were assessed using 2-tailed Fisher's Exact Probability test (p<0.05 considered significant).

[2] = system: seizure threshold current for tonic hind limb extensor convulsions in mice; experiment: Maximal electroshock seizure threshold (MEST) test in the mouse; conditions: for % change from vehicle (CC50) / CC50 ± SEM: MEST test
Procedure: The efficacy of 6-OH CBD was tested in a mouse model of generalised seizure, the maximal electroshock seizure threshold (MEST) test.
In the MEST test the ability of a drug to alter the seizure threshold current required to induce hind limb tonic extensor convulsions is measured according to an “up and down” method of shock titration (Kimball et al., 1957). An increase in seizure threshold is indicative of anti-convulsant effect.
The ability of a test compound to alter the stimulus intensity, expressed as current (mA), required to induce the presence of tonic hind limb extensor convulsions, is assessed in the MEST.
Naïve mice were acclimatised to the procedure room in their home cages for up to 7 days, with food and water available ad libitum.
All animals were weighed at the beginning of the study and randomly assigned to treatment groups based on a mean distribution of body weight across groups.
The first animal within a treatment group was given a shock at the expected or estimated CC50 current. For subsequent animals, the current was lowered or raised depending on the convulsions outcome from the preceding animal.
Data generated from each treatment group were used to calculate the CC50±SEM values for the treatment group.
Vehicle: (5% ethanol, 5% solutol, 90% Saline) was prepared as follows: 2 mL of ethanol, 2 mL of solutol were warmed to 60° C., in 36 mL of saline (1:1:18).
The test compound, alpha 6-OH CBD was prepared according to the method described in Example 1. 6-OH CBD was administered at 3, 10 and 30 mg/kg (i.p.) in a 1:1:18 ethanol:solutol:0.9% saline formulation.
6-OH CBD effects were also calculated as percentage change in CC50 from the vehicle control group.
Significant difference between drug-treated animals and controls were assessed according to Litchfield and Wilcoxon (1949).

[3] = Plasma and brain pharmacokinetics after single intravenous or intraperitoneal administration to the mouse; assay type: in vivo; conditions: for Kp: brain/plasma, other: intravenous and intraperitoneal, all IV and IP dose groups
Excerpt: The objective of this study was to determine brain and plasma pharmacokinetic parameters of 6-OH CBD following a single intravenous or intraperitoneal administration of 6-OH CBD to the mouse; and to determine brain: plasma concentration ratios for 6-OH CBD.
Ninety-nine male mice each received a single intravenous or intraperitoneal dose of 6-OH CBD, as detailed below in Table 3.
For each formulation, 6-OH CBD was formulated at the required concentration in ethanol: Kolliphor EL (Cremophor EL): 0.9% (w/v) Saline (1:1:18, v/v/v).
Each animal received a single intravenous administration, via a tail vein, at a nominal dose volume of 2 mL/kg or a single intraperitoneal administration at a nominal dose volume of 5 mL/kg.
Following dosing, terminal blood samples were collected from each animal via cardiac puncture, and brains were excised, at each of the following time points: • Intravenous groups: 7, 15 and 30 minutes, 1, 2, 4, 8, 12 and 24 hours; • Intraperitoneal groups: 15 and 30 minutes, 1, 2, 4, 8, 12 and 24 hours.
Blood was collected into tubes containing lithium heparin anticoagulant and centrifuged to prepare plasma. Brain samples were frozen on dry ice, then weighed and stored deep frozen prior to bioanalysis. The remaining carcasses were discarded. Plasma was stabilised with an equal volume of ascorbic acid solution, then stored deep frozen prior to bioanalysis.
Stabilised plasma samples were analysed to determine the concentrations of 6-OH CBD, using qualified LC-MS/MS methods. The results of these analyses were evaluated to determine non-compartmental pharmacokinetic parameters.
The following parameters were determined: • Cmax Maximum concentration observed. • Tmax Time of maximum observed concentration. • AUC0-t Area under the concentration-time curve from hour 0 to the last quantifiable concentration, estimated by the linear trapezoidal rule. • AUC0-24 Area under the concentration-time curve from hour 0 to hour 24, estimated using the linear trapezoidal rule. • t1/2 Elimination half-life, determined as In(2)/λz. • Cl Clearance, calculated (for intravenous doses only) as Dose/AUC0-inf. • Vss Volume of distribution, based on the terminal elimination phase, calculated (for intravenous doses only) as Cl/λz. • Fabs Absolute bioavailability of the intraperitoneal dose.

[4] = 30 mg/kg i.p., pre-treatment time 60 min
[5] = 3 mg/kg i.p., pre-treatment time 30 min
[6] = 10 mg/kg i.p., pre-treatment time 15 min

CCCC(CCC)C(=O)O [Valproate, valproate, reference compound]
% change from vehicle ([1]; 250 mg/kg i.p., pre-treatment time 30 min): 100%

CN1C(=O)CN=C(c2ccccc2)c2cc(Cl)ccc21 [Diazepam, diazepam, reference compound]
% change from vehicle (CC50) ([2]; 2.5 mg/kg i.p., pre-treatment time 30 min): 103%

C=C(C)[C@@H]1CC(O)C(C)=C[C@H]1c1c(O)cc(CCCCC)cc1O (stereo partly drawn) [6-OH CBD, Alpha 6-hydroxy cannabidiol]
% change from vehicle ([1]; 3 mg/kg i.p., pre-treatment time 60 min): 0%
seizure outcome in words ([1]; 3 mg/kg i.p., text says 120 minutes before the test): ineffective
% change from vehicle [1, 4]: 100%
seizure outcome in words ([1]; 30 mg/kg i.p., text says 120 minutes before the test): enabled all mice within the group to withstand seizures
seizure outcome in words ([1]; 100 mg/kg given 120 minutes before): statistically significant reduction of seizures
% change from vehicle ([1]; 100 mg/kg i.p., pre-treatment time 60 min): 100%
% change from vehicle ([1]; 100 mg/kg i.p., pre-treatment time 120 min): 100%
seizure outcome in words ([1]; 100 mg/kg i.p., text says 120 minutes before the test): enabled all mice within the group to withstand seizures
% change from vehicle ([1]; 200 mg/kg i.p., pre-treatment time 60 min): 100%
seizure outcome in words ([1]; 200 mg/kg i.p., text says 120 minutes before the test): enabled all mice within the group to withstand seizures
effect on MEST in words ([2]; 3, 10 and 30 mg/kg i.p.): dose-related increase in MEST
% change from vehicle (CC50) [2, 5]: 25%
CC50 ± SEM [2, 5]: 30.0 ± 1.1 mA
% change from vehicle (CC50) [2, 6]: 135%
CC50 ± SEM [2, 6]: 56.5 ± 2.1 mA
% change from vehicle (CC50) [2, 4]: 327%
CC50 ± SEM [2, 4]: 102.5 ± 2.2 mA
increase in brain AUC0-24 for a 10-fold increase in dose level ([3]; brain, IP 3 to 30 mg/kg): 32.6 fold
increase in brain Cmax for a 10-fold increase in dose level ([3]; brain, IP 3 to 30 mg/kg): 15.8 fold
Cmax ([3]; male, brain, IP 3 mg/kg): 851 ng/mL
Cmax ([3]; male, brain, IP 10 mg/kg): 3680 ng/mL
Cmax ([3]; male, brain, IP 30 mg/kg): 13500 ng/mL
Cmax ([3]; male, brain, IV 1 mg/kg): 1580 ng/mL
AUC(0-t) ([3]; male, brain, ip, 3 mg/kg, brain, IP 3 mg/kg, read-out: AUC0-24): 768 ng·h/mL
AUC(0-t) ([3]; male, brain, ip, 3 mg/kg, brain, IP 3 mg/kg, read-out: AUC0-t): 756 ng·h/mL
Tmax ([3]; male, brain, ip, 3 mg/kg, brain, IP 3 mg/kg, read-out: Tmax (converted)): 30 min
half-life ([3]; male, brain, ip, 3 mg/kg, brain, IP 3 mg/kg, read-out: t1/2 (converted)): 34.1 min
AUC(0-t) ([3]; male, brain, ip, 10 mg/kg, brain, IP 10 mg/kg, read-out: AUC0-24): 3940 ng·h/mL
AUC(0-t) ([3]; male, brain, ip, 10 mg/kg, brain, IP 10 mg/kg, read-out: AUC0-t): 3750 ng·h/mL
Tmax ([3]; male, brain, ip, 10 mg/kg, brain, IP 10 mg/kg, read-out: Tmax (converted)): 15 min
half-life ([3]; male, brain, ip, 10 mg/kg, brain, IP 10 mg/kg, read-out: t1/2 (converted)): 42.4 min
AUC(0-t) ([3]; male, brain, ip, 30 mg/kg, brain, IP 30 mg/kg, read-out: AUC0-24): 25000 ng·h/mL
AUC(0-t) ([3]; male, brain, ip, 30 mg/kg, brain, IP 30 mg/kg, read-out: AUC0-t): 25000 ng·h/mL
Tmax ([3]; male, brain, ip, 30 mg/kg, brain, IP 30 mg/kg, read-out: Tmax (converted)): 60 min
half-life ([3]; male, brain, ip, 30 mg/kg, brain, IP 30 mg/kg, read-out: t1/2 (converted)): 55.1 min
half-life ([3]; male, brain, ip, brain, IP administration 3-30 mg/kg, read-out: t1/2 range): 34.1 to 55.1 min
Tmax ([3]; male, brain, ip, brain, after IP dosing (3-30 mg/kg), read-out: Tmax range): 15 to 60 min
AUC(0-t) ([3]; male, brain, iv, 1 mg/kg, brain, IV 1 mg/kg, read-out: AUC0-24): 690 ng·h/mL
AUC(0-t) ([3]; male, brain, iv, 1 mg/kg, brain, IV 1 mg/kg, read-out: AUC0-t): 679 ng·h/mL
Tmax ([3]; male, brain, iv, 1 mg/kg, brain, IV 1 mg/kg, read-out: Tmax (converted)): 7.02 min
half-life ([3]; male, brain, iv, 1 mg/kg, brain, IV 1 mg/kg, read-out: t1/2 (converted)): 18.7 min
Kp ([3]; male, read-out: Brain: plasma ratio for AUC0-24, range): 1.41 to 2.01
Kp ([3]; male, read-out: Brain: plasma ratio for Cmax, range): 1.23 to 2.03
Cmax ([3]; male, plasma, IP 3 mg/kg): 658 ng/mL
Cmax ([3]; male, plasma, IP 10 mg/kg): 2550 ng/mL
Cmax ([3]; male, plasma, IP 30 mg/kg): 11000 ng/mL
Cmax ([3]; male, plasma, IV 1 mg/kg): 775 ng/mL
clearance ([3]; male, plasma, IV 1 mg/kg): 48.7 mL/min/kg
Vd ([3]; male, plasma, IV 1 mg/kg, read-out: Vss): 1.9 L/kg
AUC(0-t) ([3]; male, plasma, ip, 3 mg/kg, plasma, IP 3 mg/kg, read-out: AUC0-24): 535 ng·h/mL
AUC(0-t) ([3]; male, plasma, ip, 3 mg/kg, plasma, IP 3 mg/kg, read-out: AUC0-t): 533 ng·h/mL
Tmax ([3]; male, plasma, ip, 3 mg/kg, plasma, IP 3 mg/kg, read-out: Tmax (converted)): 15 min
half-life ([3]; male, plasma, ip, 3 mg/kg, plasma, IP 3 mg/kg, read-out: t1/2 (converted)): 59.6 min
AUC(0-t) ([3]; male, plasma, ip, 10 mg/kg, plasma, IP 10 mg/kg, read-out: AUC0-24): 2600 ng·h/mL
AUC(0-t) ([3]; male, plasma, ip, 10 mg/kg, plasma, IP 10 mg/kg, read-out: AUC0-t): 2590 ng·h/mL
Tmax ([3]; male, plasma, ip, 10 mg/kg, plasma, IP 10 mg/kg, read-out: Tmax (converted)): 15 min
half-life ([3]; male, plasma, ip, 10 mg/kg, plasma, IP 10 mg/kg, read-out: t1/2 (converted)): 64.8 min
AUC(0-t) ([3]; male, plasma, ip, 30 mg/kg, plasma, IP 30 mg/kg, read-out: AUC0-24): 17700 ng·h/mL
AUC(0-t) ([3]; male, plasma, ip, 30 mg/kg, plasma, IP 30 mg/kg, read-out: AUC0-t): 17700 ng·h/mL
Tmax ([3]; male, plasma, ip, 30 mg/kg, plasma, IP 30 mg/kg, read-out: Tmax (converted)): 15 min
half-life ([3]; male, plasma, ip, 30 mg/kg, plasma, IP 30 mg/kg, read-out: t1/2 (converted)): 57.5 min
Tmax ([3]; male, plasma, ip, 30 mg/kg, plasma, IP 3, 10 or 30 mg/kg (each dose level), read-out: Tmax (converted)): 15 min
half-life ([3]; male, plasma, ip, 30 mg/kg, plasma, IP 3, 10 or 30 mg/kg, read-out: t1/2 range across dose levels): 59.6 to 64.8 min
AUC(0-t) ([3]; male, plasma, iv, 1 mg/kg, plasma, IV 1 mg/kg, read-out: AUC0-24): 343 ng·h/mL
AUC(0-t) ([3]; male, plasma, iv, 1 mg/kg, plasma, IV 1 mg/kg, read-out: AUC0-t): 342 ng·h/mL
Tmax ([3]; male, plasma, iv, 1 mg/kg, plasma, IV 1 mg/kg, read-out: Tmax (converted)): 7.02 min
half-life ([3]; male, plasma, iv, 1 mg/kg, plasma, IV 1 mg/kg, read-out: t1/2 (converted)): 27.1 min
Fabs ([3]; plasma, IP 3 mg/kg): 52.1%
Fabs ([3]; plasma, IP 10 mg/kg): 75.8%
Fabs ([3]; plasma, IP 30 mg/kg): 173%
increase in plasma AUC0-24 for a 10-fold increase in dose level ([3]; plasma, IP 3 to 30 mg/kg): 33.2 fold
increase in plasma Cmax for a 10-fold increase in dose level ([3]; plasma, IP 3 to 30 mg/kg): 16.7 fold
